{"source": "paper PMC5363837", "about": "(Circulation, 2017)", "key": {"human apelin receptor [1]": {"biological_target": "T1, human apelin receptor (Homo sapiens, UniProt P35414)", "T1 sequence (P35414 1-380)": "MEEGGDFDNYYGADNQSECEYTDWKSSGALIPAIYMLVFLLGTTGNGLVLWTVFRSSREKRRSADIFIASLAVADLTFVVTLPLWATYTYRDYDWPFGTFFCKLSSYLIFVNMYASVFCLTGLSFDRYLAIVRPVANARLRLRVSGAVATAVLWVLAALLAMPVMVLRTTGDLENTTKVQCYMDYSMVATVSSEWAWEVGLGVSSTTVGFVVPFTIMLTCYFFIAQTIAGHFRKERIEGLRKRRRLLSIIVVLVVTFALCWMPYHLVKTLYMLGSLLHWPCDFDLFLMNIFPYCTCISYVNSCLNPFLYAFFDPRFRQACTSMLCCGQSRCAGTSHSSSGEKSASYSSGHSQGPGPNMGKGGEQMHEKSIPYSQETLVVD", "assay": "Competition binding, [125I]apelin-13, homogenate of human left ventricle", "settings": "read-out: pKi in human LV (converted)", "method": "(§1) For structure activity studies competition binding experiments were conductedin triplicate in\n(§2) homogenate of pooled human LV from cardiom yopathy patients as previousl y described 1.\n(§3) Homogenate of human LV wa s incubat ed for 90 min with 0.1nmol/L [Glp 65,Nle75, T yr 77]\n[125 I] apelin-13 in assa y buffer (mmol/ L: Tris 50, MgCl2 5, pH 7.4, 22 °C), in the presence of\n(§4) (0.5pmol/ L-10μmol/L) ( n=3 each). Non- specific binding was defined using 1μmol/L\n(§5) Equilibrium was broken b y centrifugation (20,000g for 10 min, 4 °C). Pellets\n(§6) were washed with Tris-H Cl buffer (50 mmol/ L, pH 7.4, 4 °C), re-centrifuged and bound\n(§7) radioactivity in final pellets counted. Data from triplicate experiments wer e anal yz ed using th e\n(§8) iterative non-linear curve fitting programs EBDA and LIGAND (KELL package, Biosoft, UK)\n(§9) or GraphPad Prism6 and to derive values of affinit y (ex pressed as the –log 10 of the dissociation"}, "human apelin receptor [2]": {"biological_target": "T1, human apelin receptor", "assay": "Receptor internalization assay (DiscoveRx), U2OS cells", "format": "cell-based", "from_the_text": "(§10) Inhibition of cAMP accumulation, β-arrestin recruitment, and receptor internalization assays were used to determine values of potency (pD2 [–log10 EC50]) and maximum response (EMAX). pD2 values were compared by using 1-way ANOVA with Tukey multiple comparison.\nResponses measured in r elative light units were fitted to 4 parameter logistic\nconcentration response curves in GraphPad Prism 6 (La J olla, CA, USA) and values of\npotenc y,pD 2 ( -log10 EC 50 (where EC 50 is the concentration producing half maximal response) ),\nand maximum response (EM AX ) w ere calculat ed fo r each compound.Data were subs equentl y\nRespon ses measured in relatve li ght units wer e fitted\n(§11) to 4 parameter logistic concentration response curves in GraphPad Prism 6 (La J olla, CA,\n(§12) USA) and values o f pD 2 ( -log10 EC 50) and maximum response (EM AX ) w er e calcul at ed for each\n(§13) used as the refer ence ago nists in each assa y.\nInternalisation a ssa ys w ere co nduct ed as previously des cribed1.U2OS cells artificially\nex pressing the human ap elin recepto r wer e seeded in Cell Plating medium in 96 -well plates and\nincubated for 48 hours at 37 °C in 5% CO 2.\nthe cells for 3 hours at 37 °C. This was followed b y incubation with the detection reagents fo r\n90 minutes at room temperature and luminescen ce readin g .D at a were an al y s ed as described\nfor the β -arrestin assa y ."}, "human apelin receptor [3]": {"biological_target": "T1, human apelin receptor", "assay": "Competition binding of ELA-21 in normal and PAH human LV and RV homogenate", "design": "host or cells: CHO-K1", "settings": "pooled homogenate, mean±SEM, n=3", "protocol": "Experiments were conducted in homogenate of human ventricle or Chinese hamster ovary (CHO)-K1 cells expressing the human apelin receptor.\nTo investigate whether the affinit y of ELA peptides or the density of ELA binding sites is altered in human PAH competition binding experiments were repeated as described above using ELA-21 as the com peting li gand in LV and RV from pooled homogenate from six patients transplanted for PAH and LV and RV from six normal hearts as controls. Datafrom triplicate experiments were anal yzed usin g the iter ative non -linear curve fitting programs EBDA and LIGAND (KELL package, Biosoft, UK) to determine values of affinity (K D) and recepto r densit y (B M AX ). Values were compared for LV and RV between P AH and controls using Student’s 2- tailed t -test. […]"}, "human apelin receptor [4]": {"biological_target": "T1, human apelin receptor", "assay": "Inhibition of forskolin-induced cAMP accumulation (DiscoveRx), CHO-K1 cells", "format": "cell-based", "design": "host or cells: CHO-K1"}, "human apelin receptor [5]": {"biological_target": "T1, human apelin receptor", "assay": "β-arrestin recruitment assay (DiscoveRx), CHO-K1 cells", "format": "cell-based", "design": "host or cells: CHO-K1", "from_the_text": "as §10\nβ-Arrestin ass a ys wer e conducted as previousl y described1.CHO- K1 cells artificially\nex pressing the human ap elin recepto r wer e seeded in C ell P lating medium into 96-well plates\n3μmol/L ) wer e diluted in Cell Plating mediumand added to the cells for 90 minutes at 37 °C..\nDetection reagents were then added fo ra 2- hour incubation at room temperature\nfollowed b y chemiluminescence r eadin g. Respon ses measured in relatve li ght units wer e fitted\nas §11, §12, §13"}, "human apelin receptor [6]": {"biological_target": "T1, human apelin receptor", "assay": "Competition binding in CHO-K1 cells expressing the human apelin receptor (Cerep)", "design": "host or cells: CHO-K1", "method": "Comptetition Binding Experiments\nas §1, §2, §3, §4, §5, §6, §7, §8, §9\nconstant (pKi ±sem) ) and recepto r densit y (BM AX ± sem).The pK i and B M AX values for the thr ee"}, "[7]": {"biological_target": "T2, human apelin receptor expressed in CHO-K1 cells (human, UniProt P35414 1-380)", "T2 sequence (looked up)": "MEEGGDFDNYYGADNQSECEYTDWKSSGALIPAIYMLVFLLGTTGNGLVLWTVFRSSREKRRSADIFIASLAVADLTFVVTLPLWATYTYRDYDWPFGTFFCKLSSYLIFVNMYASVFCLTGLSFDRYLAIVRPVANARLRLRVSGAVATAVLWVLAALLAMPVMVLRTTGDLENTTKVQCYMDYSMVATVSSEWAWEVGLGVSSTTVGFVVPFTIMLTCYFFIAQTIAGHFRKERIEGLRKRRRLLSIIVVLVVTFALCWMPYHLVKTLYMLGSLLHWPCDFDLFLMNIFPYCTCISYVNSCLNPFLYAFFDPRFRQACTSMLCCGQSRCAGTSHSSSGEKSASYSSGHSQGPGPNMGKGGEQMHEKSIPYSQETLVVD", "assay": "cell-based or functional assay"}, "[8]": {"biological_target": "T2, human apelin receptor expressed in …", "assay": "radioligand binding; competition binding in CHO-K1 cells expressing the human apelin receptor", "settings": "one partner purified"}}, "note": "Bridge positions count the residues as written; N and C are the ends. Ends that are not written are not given here. Peptide text beside a SMILES is read from it.", "data": [{"molecule": "CSCC[C@H](NC(=O)[C@@H]1CSSC[C@H](NC(=O)[C@H](CC(N)=O)NC(=O)[C@H](Cc2c[nH]cn2)NC(=O)[C@H](CCCCN)NC(=O)[C@H](CCCNC(=N)N)NC(=O)[C@@H](N)CC(C)C)C(=O)N[C@@H](CC(C)C)C(=O)N[C@@H](CCC(N)=O)C(=O)N[C@@H](CCCNC(=N)N)C(=O)N[C@@H](CCCNC(=N)N)C(=O)N1)C(=O)N1CCC[C@H]1C(=O)N[C@@H](CC(C)C)C(=O)N[C@@H](Cc1c[nH]cn1)C(=O)N[C@@H](CO)C(=O)N[C@@H](CCCNC(=N)N)C(=O)N[C@H](C(=O)N1CCC[C@H]1C(=O)N[C@@H](Cc1ccccc1)C(=O)N1CCC[C@H]1C(=O)O)C(C)C", "note": "[ELA-21]", "values": [{"measurement": "Ki", "setting": "human apelin receptor [1]", "result": 3.02, "unit": "nM"}, {"measurement": "Emax", "setting": "human apelin receptor [2]; U2OS", "result": "96 ± 2", "unit": "%"}, {"measurement": "EC50", "setting": "human apelin receptor [2]; U2OS cells, 3 hours, 37°C, mean±SEM, n=3-5 assays, 2-6 replicates, read-out: Internalization pD2 (converted)", "result": 0.282, "unit": "nM"}, {"measurement": "Ki", "setting": "human apelin receptor [3]; PAH human left ventricle, read-out: pKi, LV PAH (converted)", "result": 0.347, "unit": "nM"}, {"measurement": "Ki", "setting": "human apelin receptor [3]; PAH human right ventricle, read-out: pKi, RV PAH (converted)", "result": 0.501, "unit": "nM"}, {"measurement": "Ki", "setting": "human apelin receptor [3]; normal human left ventricle, read-out: pKi, LV normal (converted)", "result": 0.49, "unit": "nM"}, {"measurement": "Ki", "setting": "human apelin receptor [3]; normal human right ventricle, read-out: pKi, RV normal (converted)", "result": 1.05, "unit": "nM"}, {"measurement": "Emax", "setting": "human apelin receptor [4]; CHO-K1", "result": "101 ± 1", "unit": "%"}, {"measurement": "EC50", "setting": "human apelin receptor [4]; read-out: cAMP pD2 (converted)", "result": 0.372, "unit": "nM"}, {"measurement": "Emax", "setting": "human apelin receptor [5]; CHO-K1", "result": "102 ± 1", "unit": "%"}, {"measurement": "EC50", "setting": "human apelin receptor [5]; read-out: β-Arrestin pD2 (converted)", "result": 0.132, "unit": "nM"}]}, {"molecule": "CSCC[C@@H]1NC(=O)[C@@H](N)CSSC[C@@H](C(=O)N[C@@H](CCCNC(=N)N)C(=O)N[C@H](C(=O)N2CCC[C@H]2C(=O)N[C@@H](Cc2ccccc2)C(=O)N2CCC[C@H]2C(=O)O)C(C)C)NC(=O)[C@H](Cc2c[nH]cn2)NC(=O)[C@H](CC(C)C)NC(=O)[C@@H]2CCCN2C1=O", "note": "[cyclo[1–6]ELA-11] (HELM PEPTIDE1{C.M.P.L.H.C.R.V.P.F.P}$PEPTIDE1,PEPTIDE1,1:R3-6:R3$$$V2.0; N-terminus and C-terminus assumed)", "values": [{"measurement": "fold drop in affinity versus ELA-32, ELA-21 and ELA-14", "setting": "human apelin receptor [6]", "result": 100, "unit": "fold"}]}, {"molecule": "CMPLHCRVPFP (disulfide 1-6)", "note": "[cyclo[1–6]ELA-11]", "values": [{"measurement": "cAMP assay, pD2 (-log10 EC50)", "setting": "[7]", "result": 9.42}, {"measurement": "β-arrestin recruitment assay, pD2 (-log10 EC50)", "setting": "[7]", "result": 7.67}, {"measurement": "pKi", "setting": "[8]", "result": 7.27}]}]}
